Test results taken from US12185723B2, “Herbicidally active 3-phenylisoxazoline-5-carboxamides of s-containing cyclopentenylcarboxylic esters” (Bayer Aktiengesellschaft, priority 2019, dated 2025).

Columns and labels:
Type in all cases: in vivo
Alopecurus myosuroides = assay: Post-emergence herbicidal action against ALOMY; conditions: 20 g a.i./ha, visual rating about 3 weeks after treatment
Protocol: (§1) Post-Emergence Herbicidal Action Against Harmful Plants and Crop Plant Compatibility Seeds of monocotyledonous and dicotyledonous weeds and crop plants are placed in sandy loam in plastic or wood-fibre pots, covered with soil and cultivated in a greenhouse under controlled growth conditions. 2 to 3 weeks after sowing, the test plants are treated at the one-leaf stage. The compounds of the invention, formulated in the form of wettable powders (WP) or as emulsion concentrates (EC), are then sprayed onto the green parts of the plants as aqueous suspension or emulsion with addition of 0.5% additive at a water application rate of 600 l/ha (converted). After the test plants have been kept in the greenhouse under optimum growth conditions for about 3 weeks, the activity of the preparations is rated visually in comparison to untreated controls. For example, 100% activity=the plants have died, 0% activity=like control plants. [table]

Echinochloa crus-galli = assay: Post-emergence herbicidal action against ECHCG; conditions: 20 g a.i./ha, visual rating about 3 weeks after treatment
Protocol: as §1

DIGSA = assay: Post-emergence herbicidal action against DIGSA; conditions: 20 g a.i./ha, visual rating about 3 weeks after treatment
Protocol: as §1, with “plants.” for “plants. [table]”

Polygonum convolvulus = assay: Post-emergence herbicidal action against POLCO; conditions: 20 g a.i./ha
Protocol: as §1

Setaria viridis = assay: Post-emergence herbicidal action against SETVI; conditions: visual rating about 3 weeks after treatment
Protocol: as §1

Pharbitis purpurea = assay: Post-emergence herbicidal action against PHBPU; conditions: 20 g a.i./ha
Protocol: as §1

Avena fatua = assay: Post-emergence herbicidal action against AVEFA; conditions: 20 g a.i./ha, visual rating about 3 weeks after treatment
Protocol: as §1

Veronica persica = assay: Post-emergence herbicidal action against VERPE; conditions: 20 g a.i./ha
Protocol: as §1

Lolium rigidum = assay: Post-emergence herbicidal action against LOLRI; conditions: 20 g a.i./ha, visual rating about 3 weeks after treatment
Protocol: as §1

Amaranthus retroflexus = assay: Post-emergence herbicidal action against AMARE; conditions: 20 g a.i./ha
Protocol: as §1

Abutilon theophrasti = assay: Post-emergence herbicidal action against ABUTH; conditions: 20 g a.i./ha, visual rating about 3 weeks after treatment
Protocol: as §1

SMILES | Herbicidal action against [%] ALOMY (Alopecurus myosuroides) | Herbicidal action against [%] ECHCG (Echinochloa crus-galli) | Herbicidal action against [%] DIGSA (DIGSA) | Herbicidal action against [%] POLCO (Polygonum convolvulus) | Herbicidal action against [%] SETVI (Setaria viridis; 20 g a.i./ha) | Herbicidal action against [%] PHBPU (Pharbitis purpurea) | Herbicidal action against [%] AVEFA (Avena fatua) | Herbicidal action against [%] VERPE (Veronica persica) | Herbicidal action against [%] LOLRI (Lolium rigidum) | Herbicidal action against [%] AMARE (Amaranthus retroflexus) | Herbicidal action against [%] ABUTH (Abutilon theophrasti) | Herbicidal action against [%] SETVI (Setaria viridis; 80 g a.i./ha)
CC1(C(=O)NC2C=CC(C(=O)OCCSC3CCCCC3)C2)CC(c2cc(F)cc(F)c2)=NO1 (stereo not shown) [Example I-03] | 90% | 80% | 80% | 80% | 80% | 80% | – | – | – | – | – | –
CC1(C(=O)NC2C=CC(C(=O)OCCS(C)(=O)=O)C2)CC(c2cc(F)cc(F)c2)=NO1 (stereo not shown) [Example I-14] | 90% | 80% | 90% | – | 90% | 80% | 80% | 90% | 90% | 90% | – | –
CSCCOC(=O)C1C=CC(NC(=O)C2(CCl)CC(c3cc(F)cc(C#N)c3)=NO2)C1 (stereo not shown) [Example I-58] | 90% | 80% | – | 80% | – | – | 80% | 80% | – | – | – | –
CCS(=O)(=O)CCOC(=O)C1C=CC(NC(=O)C2(C)CC(c3cc(F)cc(F)c3)=NO2)C1 (stereo not shown) [Example I-01] | 90% | 90% | 90% | 90% | 90% | 80% | 90% | 80% | 100% | 90% | 90% | –
CSCCOC(=O)C1C=CC(NC(=O)C2(C)CC(c3cc(C)cc(F)c3)=NO2)C1 (stereo not shown) [Example I-59] | – | 80% | 90% | – | – | 80% | – | 80% | – | 80% | – | –
C[S+]([O-])CCOC(=O)C1C=CC(NC(=O)C2(C)CC(c3cccc(F)c3)=NO2)C1 (mixture of isomers) [Example I-61] | 80% | 80% | – | – | 80% | – | – | 80% | – | 80% | – | –
CSCCOC(=O)C1C=CC(NC(=O)C2(CO)CC(c3cc(F)cc(F)c3)=NO2)C1 (stereo not shown) [Example I-70] | 100% | 90% | – | 80% | 90% | 80% | 80% | – | – | – | – | –
CSCCOC(=O)C1C=CC(NC(=O)C2(CF)CC(c3cc(F)cc(F)c3)=NO2)C1 (stereo not shown) [Example I-74] | – | 90% | 90% | – | – | – | – | 80% | 90% | 80% | 90% | –
CSCCOC(=O)C1C=CC(NC(=O)C2(C)CC(c3cc(C)cc(Cl)c3)=NO2)C1 (stereo not shown) [Example I-75] | 90% | 90% | 90% | – | 90% | 80% | 80% | 80% | – | – | 80% | –
COC1(C(=O)NC2C=CC(C(=O)OCCSC(F)(F)F)C2)CC(c2cc(F)cc(F)c2)=NO1 (stereo not shown) [Example I-21] | 90% | 90% | 80% | 80% | 80% | – | 80% | 90% | 100% | – | 80% | –
C=CCSCCOC(=O)C1C=CC(NC(=O)C2(OC)CC(c3cc(F)cc(F)c3)=NO2)C1 (stereo not shown) [Example I-26] | 90% | 80% | 90% | 80% | – | – | 90% | 80% | 90% | 80% | 80% | –
C=CC1(C(=O)NC2C=CC(C(=O)OCCSC)C2)CC(c2cc(C)cc(F)c2)=NO1 (stereo not shown) [Example I-56] | 80% | – | – | 80% | – | – | – | – | 80% | – | – | –
CSCCOC(=O)C1C=CC(NC(=O)C2(C)CC(c3cc(Cl)cc(C#N)c3)=NO2)C1 (stereo not shown) [Example I-72] | 90% | 80% | 90% | 80% | 90% | – | 80% | 80% | 90% | 80% | – | –
CSCCOC(=O)C1C=CC(NC(=O)C2(C3CC3)CC(c3cc(F)cc(F)c3)=NO2)C1 (stereo not shown) [Example I-27] | – | – | – | – | – | – | – | – | – | – | – | 90%
CC(=O)CCSCCOC(=O)C1C=CC(NC(=O)C2(C)CC(c3cc(F)cc(F)c3)=NO2)C1 (stereo not shown) [Example I-15] | 90% | 80% | 80% | 80% | – | – | – | 80% | 80% | – | – | –
CN(C)C(=O)SCCOC(=O)C1C=CC(NC(=O)C2(C)CC(c3cc(F)cc(F)c3)=NO2)C1 (stereo not shown) [Example I-04] | 100% | 80% | 80% | – | 80% | 80% | 80% | 80% | – | – | 80% | –
CC(C)C(=O)SCCOC(=O)C1C=CC(NC(=O)C2(C)CC(c3cc(F)cc(F)c3)=NO2)C1 (stereo not shown) [Example I-05] | 100% | 80% | 80% | 80% | 80% | 80% | – | 80% | – | – | – | –
COC1(C(=O)NC2C=CC(C(=O)OCCSC)C2)CC(c2cc(C)cc(F)c2)=NO1 (stereo not shown) [Example I-62] | 90% | 80% | 80% | 80% | 90% | 80% | 80% | 90% | 90% | 90% | – | –
C=CC1(C(=O)NC2C=CC(C(=O)OCCSC)C2)CC(c2cccc(F)c2)=NO1 (stereo not shown) [Example I-35] | 90% | 90% | 90% | 90% | 90% | 80% | 90% | 80% | 90% | 80% | – | –
CSCCOC(=O)C1C=CC(NC(=O)C2(CCl)CC(c3cc(F)cc(F)c3)=NO2)C1 (stereo not shown) [Example I-60] | 80% | 80% | – | 80% | – | – | 80% | – | 80% | 80% | – | –
CSCCOC(=O)C1C=CC(NC(=O)C2(C)CC(c3cc(C#N)cc(C#N)c3)=NO2)C1 (stereo not shown) [Example I-52] | 90% | – | – | 80% | – | 80% | 80% | 80% | – | – | – | –
CCSCCOC(=O)C1C=CC(NC(=O)C2(OC)CC(c3cc(F)cc(F)c3)=NO2)C1 (stereo not shown) [Example I-22] | 90% | 80% | 90% | – | 90% | 80% | 90% | 90% | 90% | 80% | 80% | –
